Measurements published in patent US20160158258A1, “PREVENTION AND TREATMENT OF INFLAMMATORY CONDITIONS” (GLYCOREGIMMUNE, INC., priority 2014, published 2016).
Each block holds one molecule with its values, some of them ahead of it.

How the values were obtained:
[1] = tested on: type I NKT cells; sulfatide/CD1d-tetramer+ cells; conditions: after administration in vivo; cited from earlier work
[2] = tested on: ConA-induced hepatitis; conditions: description, no example; cited from earlier work
[3] = tested on: chronic experimental autoimmune encephalomyelitis (EAE); test: EAE, oral sulfatide; assay type: in vivo, B6 mice; conditions: oral 200 micrograms for 7 days, starting one day before disease induction
Source text: However as shown in FIG. 6 oral treatment with sulfatide though inhibits disease initially when given orally but not very efficient. Without being limited by any theory, it is contemplated that sulfatide is not very stable in the gut, which is consistent with the observed low efficiency. With reference to FIG. 6, groups of B6 mice were orally treated with sulfatide (200 micrograms in 200 microliters in PBS) for 7 days, starting one day before the disease induction. Clinical paralysis was monitored daily and scored from 1 to 5. […] Without being limited by any theory, the observed similarity of both groups in consistent with instability of sulfatide in the gut.

[4] = tested on: chronic and relapsing experimental autoimmune encephalomyelitis (EAE); test: chronic and relapsing EAE; assay type: in vivo, SJL mice
Experimental: Groups of SJL mice were orally gavaged with miltefosine (1 mg in 200 microliters of 10% DMSO/PBS) or control (DMSO/PBS), twice a week as indicated by arrows. Clinical severity of disease was monitored daily as paralysis in both groups of mice from scale 1 to 5 and shown.

[5] = tested on: liver damage caused by alcohol consumption; conditions: description, no example; cited from earlier work
[6] = tested on: hepatic ischemia and reperfusion injury; conditions: cited from earlier work
[7] = tested on: conventional MHC-restricted CD4+ T cells; conditions: description, no example; cited from earlier work
[8] = tested on: type I NKT cell; conditions: description, no example; also in the absence of antigen-presenting cells; cited from earlier work
[9] = tested on: type I NKT cells; test: alpha-GalCer stimulation of splenocytes from orally treated mice; assay type: in vivo, B6 mice; conditions: 1 mg oral gavage daily for 7 days; splenocytes cultured 90 hrs; 10 ng/ml alpha-GalCer
Experimental: Naïve B6 mice were treated every day for 7 days with DMSO (Control) or Miltefosine 1 mg (dissolved in DMSO and diluted into PBS), using oral gavage. Splenocytes were cultured in vitro for 90 hrs in the presence or absence of alpha-GalCer. Stimulation (as stimulation Index) and expansion of type I NKT cells (as FACS staining with alpha-GalCer/CD1d^−tetramer^+ cells) at 10 ng/ml of alpha-GalCer concentration is shown in both FIG. 2A and FIG. 2B.

[10] = tested on: liver mononuclear cells; test: flow cytometry of liver mononuclear cells after oral treatment; assay type: in vivo, SJL/J mice; conditions: 1 mg orally before and during disease; day 59
Experimental: Groups of female SJL/J mice were administered orally with 1 mg of miltefosine as shown in the FIG. 2, before and during the course of disease. Mice were sacrificed on day 59.

[11] = tested on: type II NKT cell hybridoma, Hy19.3; test: plate-bound CD1d assay: IL-2 from type II NKT cell hybridoma; assay type: cell-based; conditions: CD1d coated plates incubated with lipid 6 hr; 50,000 cells/well; IL-2 measured 16 hr later
Experimental: (§1) The CD1d protein coated 96-well plates were incubated with the indicated lipids for 6 hr, washed and a type II NKT cell Hy 19.3 was added (50,000 cells/well) and IL-2 measured 16 hr later in the supernatant. LSF, lysosulftatide; LPC, lysophosphatidylcholine.

[12] = tested on: ConA-induced hepatitis; test: ConA-induced hepatitis; assay type: in vivo, BL/6 mice
Experimental: Groups of BL/6 mice were either administered with DMSO/PBS or miltefosine 12 hr before ConA administration and liver injury was determined by H&E staining of liver sections and liver enzymes, such as ALT in serum examined 24 hr later (FIG. 3A and FIG. 3B). Data shown are representative of 2 independent experiments.

[13] = tested on: alcoholic liver diseases (ALD); test: alcoholic liver disease, chronic plus binge EtOh feeding; assay type: in vivo, C57BL/6 mice
Source text: Groups of C57BL/6 mice were fed liquid alcohol (EtOh) diet or isocaloric control (control) diet for 10 day either containing miltefosine (˜500 micrograms per day) or DMSO/PBS. On day 11, 9 hr after the binge (chronic plus binge feeding), accumulation and activation of type I NKT cells (alpha-GalCer/CD1d^−tetramer^+ cells) or neutrophils (Ly^−6 G^+ CD11b^+) were examined in liver. As shown in FIG. 4A and FIG. 4B, in comparison to the control diet group, type I NKT cells accumulate into liver in mice fed liquid chronic plus binge EtOh diet. Also as shown in FIG. 4C and FIG. 4D, type I NKT cells become activated (as examined by the expression of CD69 cell surface expression in alpha-GalCer/CD1d-tetrame^+ cells) accompanied by accumulation of neutrophils (Ly^−6 G^+ CD11b^+ cells) into liver. Accumulation of activated type I NKT cells and neutrophils leads to inflammatory cascade resulting in heaptocyte injury during ALD.

[14] = biological target: T1, CD1d (Mus musculus, UniProt P11609); test: plate-bound CD1d assay: binding to CD1d; conditions: concluded from plate-bound CD1d assay
T1 sequence (P11609 19-297 limits assumed): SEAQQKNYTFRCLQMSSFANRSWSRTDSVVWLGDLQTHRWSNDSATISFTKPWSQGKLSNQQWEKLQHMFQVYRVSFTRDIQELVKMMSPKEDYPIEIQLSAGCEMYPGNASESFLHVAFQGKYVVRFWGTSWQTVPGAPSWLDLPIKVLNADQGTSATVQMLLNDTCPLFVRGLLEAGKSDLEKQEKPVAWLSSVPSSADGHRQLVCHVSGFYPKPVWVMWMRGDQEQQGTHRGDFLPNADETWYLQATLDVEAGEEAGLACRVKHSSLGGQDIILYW
T1 sequence (P01887 21-119 partner): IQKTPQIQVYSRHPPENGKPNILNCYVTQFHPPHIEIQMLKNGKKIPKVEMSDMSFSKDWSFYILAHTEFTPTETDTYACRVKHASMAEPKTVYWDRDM
Experimental: as §1

[15] = ~500 micrograms per day in EtOh diet 10 day, day 11, 9 hr after binge

Molecule: 3′-sulfogalactosyl ceramide [sulfatide]
in vitro proliferation of type I NKT cells in response to alpha-GalCer [1]: suppress in vitro proliferation of type I NKT cells | percentage of sulfatide/CD1d-tetramer+ cells with intracytoplasmic IFN-gamma staining [1]: increase the percentage of sulfatide/CD1d-tetramer+ cells with intracytoplasmic IFN-gamma staining | protection against ConA-induced hepatitis (hepatocellular necrosis, serum ALT and AST) [2]: can protect against Concanavalin A (ConA)-induced hepatitis | duration of initial protection from clinical paralysis [3]: 4 to 5 days | chronic and relapsing EAE ([4]; SJL/J mice, route not stated): significant inhibition | liver damage following excess alcohol consumption [5]: almost complete protection from liver damage | secretion of IFN-gamma by hepatic type I NKT cells ([6]; early phase of ischemia and reperfusion injury, vs untreated animals): significantly decreased | liver injury following ischemia/reperfusion ([6]; mice treated with sulfatide): significantly reduced

Molecule: CC1=C(/C=C/C(C)=C/C=C/C(C)=C/C(=O)O)C(C)(C)CCC1 [ATRA, all trans retinoic acid]
activity of conventional MHC-restricted CD4+ T cells that recognize protein antigens [7]: does not directly inhibit | liver damage following excess alcohol consumption [5]: significantly inhibits liver damage | type I NKT cell effector function, including cytokine secretion [8]: inhibits type I NKT cell effector function

binding to CD1d molecules [14]: can bind to CD1d molecules
Molecule: CCCCCCCCCCCCCCCCOP(=O)([O-])OCC[N+](C)(C)C [miltefosine]
type I NKT cells proliferation and expansion in the presence of alpha-GalCer [9]: significant inhibition | other CD4+ and CD8αβ+ T cells in liver, control vs. treated [10]: not different | regulatory CD8αα+ T cells in liver [10]: significantly increased | clinical severity of disease (paralysis, scale 1 to 5) ([4]; oral gavage 1 mg twice a week): can be treated with miltefosine | stimulation of type II NKT cell hybridoma Hy19.3 (IL-2 in the supernatant) [11]: able to stimulate | serum levels of ALT ([12]; given 12 hours before ConA, 24 hours later): reduced serum levels of ALT | liver injury following Con A injection ([12]; given 12 hr before ConA): significant inhibition of liver injury | necrosis, H&E staining of liver sections ([12]; given 12 hr before ConA): decreased necrosis | liver injury ([13]; ~500 micrograms per day in EtOh diet): protection from liver injury | accumulation of type I NKT cells in liver [13, 15]: inhibited accumulation of type I NKT cells | levels of activated (CD69+) type I NKT cells in liver [13, 15]: reduced levels of activated (CD69^+) NKT cells | levels of neutrophils (Ly-6G+ CD11b+) in liver [13, 15]: reduced levels of neutrophils
